The values below come from patent US9670194B2 (Calitor Sciences, LLC, priority 2013, dated 2017).

A short description of data set [1]: Compound stability in human liver microsomes. It counts as in vitro ADME. The conditions noted are these: for half-life at 5 μM: human liver microsomes 0.5 mg protein/mL, compound 5 μM, NADPH 1.0 mM, 37° C.; for CLint scaled at 5 μM: human liver microsomes, in vivo CLint extrapolated.
Data set [2] can be described thus: Compound stability in rat liver microsomes. Type of data set: in vitro ADME. The following applies: pH 7.4; for half-life at 5 μM: rat liver microsomes 0.5 mg protein/mL, compound 5 μM, NADPH 1.0 mM, 37° C.; for CLint scaled at 5 μM: rat liver microsomes, in vivo CLint extrapolated.
Data set [3] in a line: Pharmacokinetics after intravenous and oral administration in rats. Type of data set: in vivo, rat. The conditions noted are these: for clearance (CL) / AUC(0-t) / half-life / Vd / CL/F: iv dosing; for bioavailability / AUC(0-t) / half-life / Vd: rat, plasma; for bioavailability: oral dose generally 5 or 10 mg/kg; for Vd: read-out: Vss.

Like-named read-outs stand apart in the source and are kept apart here.

By half-life is commonly meant the time needed for the level to fall by half in the phase considered. Low values mean rapid decline, high ones slow decline. By CLint scaled is commonly meant the capacity of the preparation to metabolise the compound, expressed as a volume cleared per time. For orientation: AUC(0-t) means exposure summed from dosing to a finite time, without extrapolation to infinity. With `CC[C@H](Nc1ncnc(N)c1-c1nc(C)co1)c1nc2cccc(C)c2c(=O)n1-c1ccccc1C` [Ex. 29, (S)-2-(1-((6-amino-5-(4-methyloxazol-2-yl)pyrimidin-4-yl)amino)propyl)-5-methyl-3-(o-tolyl)quinazolin-4(3H)-one], in data set [1], the half-life at 5 μM was 1.92 min and the CLint scaled at 5 μM was 1290 mL/min/kg. In data set [2], the half-life at 5 μM was 1.92 min and the CLint scaled at 5 μM was 1300 mL/min/kg. Besides, in data set [3] (dose 1 mg/kg), the “clearance (CL)” value was 130 mL/min/kg, the exposure AUC(0-t) was 247 ng·h/mL, the half-life is 122 min and the Vd was 13.2 L/kg. Moreover, the bioavailability in data set [3] (iv dose 1 mg/kg) is 4.56%.

`CC[C@H](Nc1ncnc(N)c1-c1ncn(C)n1)c1nc2cccc(Cl)c2c(=O)n1-c1ccccc1F` [Ex. 45, (S)-2-(1-((6-amino-5-(1-methyl-1H-1,2,4-triazol-3-yl)pyrimidin-4-yl)amino)-propyl)-5-chloro-3-(2-fluorophenyl)quinazolin-4(3H)-one]: in data set [1], the half-life at 5 μM was 10.7 min and the CLint scaled at 5 μM was 162 mL/min/kg. In addition, in data set [2], the half-life at 5 μM was determined as 9 min and the CLint scaled at 5 μM is 276 mL/min/kg. In data set [3] (dose 1 mg/kg), the “clearance (CL)” value was found to be 61.8 mL/min/kg, the AUC(0-t) stood at 278 ng·h/mL, the half-life is 58.2 min and the Vd is 4.61 L/kg. For the same compound, the bioavailability in data set [3] (iv dose 1 mg/kg) is 70.2%.

For `CC[C@H](Nc1ncnc(N)c1-c1noc(C)n1)c1nc2cccc(Cl)c2c(=O)n1-c1ccccc1` [Ex. 13, (S)-2-(1-((6-amino-5-(5-methyl-1,2,4-oxadiazol-3-yl)pyrimidin-4-yl)amino)-propyl)-5-chloro-3-phenylquinazolin-4(3H)-one], in data set [1], the half-life at 5 μM was 44.7 min and the CLint scaled at 5 μM was 38.9 mL/min/kg. For the same compound, in data set [2], the half-life at 5 μM was determined as 6.55 min and the CLint scaled at 5 μM was 379 mL/min/kg. Further, in data set [3] (dose 1 mg/kg), the “clearance (CL)” value was 72.5 mL/min/kg, the AUC(0-t) came out at 232 ng·h/mL, the half-life is 68.4 min and the Vd is 6.92 L/kg. The bioavailability in data set [3] (iv dose 1 mg/kg) came out at 11.4%.

With `CC[C@H](Nc1ncnc(N)c1-c1nnc(C)o1)c1nc2ccccc2c(=O)n1-c1ccccc1F` [Ex. 24, (S)-2-(1-((6-amino-5-(5-methyl-1,3,4-oxadiazol-2-yl)pyrimidin-4-yl)amino)-propyl)-3-(2-fluorophenyl)quinazolin-4(3H)-one], in data set [1], the half-life at 5 μM came out at 17.1 min and the CLint scaled at 5 μM is 146 mL/min/kg. Moreover, in data set [2], the half-life at 5 μM came to 5.42 min and the CLint scaled at 5 μM was 458 mL/min/kg. Moreover, in data set [3] (dose 0.48 mg/kg), the “clearance (CL)” value was found to be 70.5 mL/min/kg, the area under the curve AUC(0-t) amounted to 121 ng·h/mL, the half-life was 30.6 min and the Vd came out at 2.31 L/kg. The bioavailability in data set [3] (iv dose 0.48 mg/kg) came to 69.1%.

Turning to `CC[C@H](Nc1ncnc(N)c1-c1ccon1)c1nc2cccc(F)c2c(=O)n1C1CC1` [Ex. 48, (S)-2-(1-((6-amino-5-(isoxazol-3-yl)pyrimidin-4-yl)amino)propyl)-3-cyclopropyl-5-fluoroquinazolin-4(3H)-one], in data set [1], the half-life at 5 μM was 136 min and the CLint scaled at 5 μM was 12.8 mL/min/kg. In data set [2], the half-life at 5 μM came to 27 min and the CLint scaled at 5 μM was 91.8 mL/min/kg. In data set [3] (dose 1 mg/kg), the “clearance (CL)” value came out at 67.3 mL/min/kg, the AUC(0-t) was 254 ng·h/mL, the half-life was 40.8 min and the Vd is 2.42 L/kg. Also, the bioavailability in data set [3] (iv dose 1 mg/kg) turned out to be 32.7%.

Regarding `C[C@H](Nc1ncnc(N)c1-c1nnn(C)n1)c1nc2cccc(Cl)c2c(=O)n1C1CC1` [Ex. 42, (S)-2-(1-((6-amino-5-(2-methyl-2H-tetrazol-5-yl)pyrimidin-4-yl)amino)ethyl)-5-chloro-3-cyclopropylquinazolin-4(3H)-one], in data set [1], the half-life at 5 μM was found to be 42.4 min and the CLint scaled at 5 μM was 41 mL/min/kg. Also, in data set [2], the half-life at 5 μM amounted to 25.3 min and the CLint scaled at 5 μM was 98.2 mL/min/kg. For the same compound, in data set [3] (dose 1 mg/kg), the “clearance (CL)” value was 82 mL/min/kg, the area under the curve AUC(0-t) was determined as 203 ng·h/mL, the half-life is 54.6 min and the Vd turned out to be 5.15 L/kg. Besides, the bioavailability in data set [3] (iv dose 1 mg/kg) is 33%.

Regarding `CC[C@H](Nc1ncnc(N)c1-c1nnn(C)n1)c1nc2cccc(Cl)c2c(=O)n1-c1cccc(F)c1` [Ex. 36, (S)-2-(1-((6-amino-5-(2-methyl-2H-tetrazol-5-yl)pyrimidin-4-yl)amino)propyl)-5-chloro-3-(3-fluorophenyl)quinazolin-4(3H)-one], in data set [1], the half-life at 5 μM is 14.3 min and the CLint scaled at 5 μM was 122 mL/min/kg. Moreover, in data set [2], the half-life at 5 μM was found to be 14.6 min and the intrinsic metabolic clearance (CLint scaled) at 5 μM is 170 mL/min/kg.

For `CC[C@H](Nc1ncnc(N)c1-c1ccon1)c1nc2cccc(C)c2c(=O)n1C1CC1` [Ex. 47, (S)-2-(1-((6-amino-5-(isoxazol-3-yl)pyrimidin-4-yl)amino)propyl)-3-cyclopropyl-5-methylquinazolin-4(3H)-one], in data set [1], the half-life at 5 μM came out at 27.1 min and the CLint scaled at 5 μM is 91.6 mL/min/kg. Also, in data set [2], the half-life at 5 μM was 7.63 min and the CLint scaled at 5 μM is 325 mL/min/kg. Besides, in data set [3] (dose 1 mg/kg), the “clearance (CL)” value was 6100 mL/min/kg, the AUC(0-t) amounted to 271 ng·h/mL, the half-life was 56.4 min and the Vd was determined as 3.16 L/kg. Moreover, in data set [3] (iv dose 1 mg/kg), the bioavailability came to 23.6%.

Consider `CC[C@H](Nc1ncnc(N)c1-c1nc(C)co1)c1nc2cccc(Cl)c2c(=O)n1C1CC1` [Ex. 52, (S)-2-(1-((6-amino-5-(4-methyloxazol-2-yl)pyrimidin-4-yl)amino)propyl)-5-chloro-3-cyclopropylquinazolin-4(3H)-one], for which, in data set [1], the half-life at 5 μM is 7.72 min and the CLint scaled at 5 μM was 322 mL/min/kg. Further, in data set [2], the half-life at 5 μM is 6.71 min and the CLint scaled at 5 μM is 370 mL/min/kg. Further, in data set [3] (dose 1 mg/kg), the “clearance (CL)” value was found to be 85.7 mL/min/kg, the AUC(0-t) was 194 ng·h/mL, the half-life is 73.2 min and the Vd came out at 6.07 L/kg. In data set [3] (iv dose 1 mg/kg), the bioavailability was 21.3%.

As a reminder, the CL/F is clearance divided by bioavailability, as obtained after extravascular dosing. For `CC[C@H](Nc1ncnc(N)c1-c1noc(C)n1)c1nc2cccc(C)c2c(=O)n1C1CC1`, in data set [1], the half-life at 5 μM was found to be 19.6 min and the CLint scaled at 5 μM is 126 mL/min/kg. Moreover, in data set [2], the half-life at 5 μM was found to be 20 min and the CLint scaled at 5 μM is 124 mL/min/kg. In addition, in data set [3] (dose 1 mg/kg), the CL/F worked out at 40.3 mL/min/kg, the AUC(0-t) was found to be 393 ng·h/mL, the half-life is 158 min and the Vd was 6.07 L/kg. In data set [3] (iv dose 1 mg/kg), the bioavailability came to 40.5%.

In the case of `CC[C@H](Nc1ncnc(N)c1-c1ncn(C)n1)c1nc2cccc(C)c2c(=O)n1C1CC1` [Ex. 18, (S)-2-(1-((6-amino-5-(1-methyl-1H-1,2,4-triazol-3-yl)pyrimidin-4-yl)amino)propyl)-3-cyclopropyl-5-methylquinazolin-4(3H)-one], in data set [1], the half-life at 5 μM was found to be 16.5 min and the CLint scaled at 5 μM was 105 mL/min/kg. Besides, in data set [2], the half-life at 5 μM was 9.24 min and the intrinsic clearance (CLint scaled) at 5 μM was 269 mL/min/kg. Moreover, in data set [3] (dose 1 mg/kg), the “clearance (CL)” value came out at 54.2 mL/min/kg, the exposure AUC(0-t) came out at 307 ng·h/mL, the half-life is 53.4 min and the Vd is 2.94 L/kg. Besides, the bioavailability in data set [3] (iv dose 1 mg/kg) was 60.6%.

On to `CC[C@H](Nc1ncnc(N)c1-c1noc(C)n1)c1nc2ccccc2c(=O)n1-c1ccccc1F`, for which, in data set [1], the half-life at 5 μM is 11 min and the CLint scaled at 5 μM is 227 mL/min/kg. In data set [2], the half-life at 5 μM worked out at 2.69 min and the CLint scaled at 5 μM was 923 mL/min/kg. In data set [3] (dose 1 mg/kg), the CL/F is 118 mL/min/kg, the AUC(0-t) turned out to be 143 ng·h/mL, the half-life is 63 min and the Vd is 7.21 L/kg. In addition, the bioavailability in data set [3] (iv dose 1 mg/kg) came to 8.88%.

In the case of `CC[C@H](Nc1ncnc(N)c1-c1nc(COC)n(C)n1)c1nc2cccc(Cl)c2c(=O)n1C1CC1` [Ex. 46, (S)-2-(1-((6-amino-5-(5-(methoxymethyl)-1-methyl-1H-1,2,4-triazol-3-yl)pyrimidin-4-yl)amino)propyl)-5-chloro-3-cyclopropylquinazolin-4(3H)-one], in data set [1], the half-life at 5 μM came to 6.1 min and the CLint scaled at 5 μM was 285 mL/min/kg. In data set [2], the half-life at 5 μM stood at 3.86 min and the CLint scaled at 5 μM was 644 mL/min/kg. For the same compound, in data set [3] (dose 1 mg/kg), the “clearance (CL)” value is 55.8 mL/min/kg, the AUC(0-t) was determined as 300 ng·h/mL, the half-life is 42.6 min and the Vd was determined as 3.65 L/kg. The bioavailability in data set [3] (iv dose 1 mg/kg) was found to be 20.2%.

Turning to `CC[C@H](Nc1ncnc(N)c1-c1nc(C(N)=O)n(C)n1)c1nc2cccc(Cl)c2c(=O)n1C1CC1` [Ex. 58, (S)-3-(4-amino-6-((1-(5-chloro-3-cyclopropyl-4-oxo-3,4-dihydroquinazolin-2-yl)propyl)amino)pyrimidin-5-yl)-1-methyl-1H-1,2,4-triazole-5-carboxamide], in data set [1], the half-life at 5 μM amounted to 61.8 min and the CLint scaled at 5 μM is 28.1 mL/min/kg. Besides, in data set [2], the half-life at 5 μM stood at 122 min and the CLint scaled at 5 μM is 20.4 mL/min/kg. In data set [3] (dose 1 mg/kg), the “clearance (CL)” value amounted to 26.2 mL/min/kg, the AUC(0-t) turned out to be 580 ng·h/mL, the half-life was 143 min and the Vd is 5.03 L/kg. Further, in data set [3] (iv dose 1 mg/kg), the bioavailability is 106%.

As to `CC[C@H](Nc1ncnc(N)c1-c1nnn(C)n1)c1nc2cccc(Cl)c2c(=O)n1C1CC1` [Ex. 54, (S)-2-(1-((6-amino-5-(2-methyl-2H-tetrazol-5-yl)pyrimidin-4-yl)amino)-propyl)-5-chloro-3-cyclopropylquinazolin-4(3H)-one], the half-life at 5 μM in data set [1] was 42.8 min; in data set [2] it was 99.1 min. Moreover, the CLint scaled at 5 μM in data set [1] is 40.6 mL/min/kg; in data set [2], 25.1 mL/min/kg.
